Test results reported in patent US10646442B2, “Liposome composition and method for producing same” (FUJIFILM Corporation, priority 2014, dated 2020).
Counter-ions that a name gives are not always drawn.

Columns and labels:
[1] = Retentivity in blood (free pemetrexed concentration in blood plasma); format: in vivo; conditions: mouse, intravenous, 6 mg/kg in terms of drug amount, tail vein injection, male C3H mice
Method: Further, the liposome composition of Example 10 at a dose of 6 mg/kg in terms of drug amount was administered via tail vein injection to 8-week old male C3H mice under the non-fasting conditions. Blood was collected at 15 minutes, 1 hour, 4 hours, and 24 hours after the administration was completed, and the free pemetrexed concentration in blood plasma was quantified to calculate a T1/2.

[2] = test system: Capan-1 (human pancreatic cancer cell line); assay: In vitro cancer cell growth inhibition; format: cell-based; conditions: Capan-1, cultured 144 hours, Luminescent Cell Viability Assay, read-out: IC50 (drug effect concentration that inhibits 50% of cancer cell growth)
Method: 2×10^3 cells/[…]/well of Capan-1 (human pancreatic cancer cell line) were seeded onto a 96-well plate. Subsequently, a free drug (gemcitabine hydrochloride) solution, and a drug encapsulated in the liposome compositions of Example 4 and Comparative Examples 4 and 5 were added at each concentration, and cultured until after 144 hours. The cell viability was calculated from the amount of luminescence obtained by a Luminescent Cell Viability Assay after the completion of the culture. In addition, a drug effect concentration (IC50) that inhibits 50% of cancer cell growth was determined.

[3] = reference value for free drug in mice; not among the administered groups; cited from earlier work

half-life [1] [h]	IC50 [2] [nM]	SMILES	T1/2 of free gemcitabine in mice [3] [h]
2	–	Nc1nc2[nH]cc(CCc3ccc(C(=O)N[C@@H](CCC(=O)O)C(=O)O)cc3)c2c(=O)[nH]1 [drug aqueous solution, pemetrexed disodium heptahydrate]	–
–	7	Nc1ccn([C@@H]2O[C@H](CO)[C@@H](O)C2(F)F)c(=O)n1 [free drug, gemcitabine hydrochloride]	0.7
